According to article PMC8958505, “Discovery of Potential Neuroprotective Agents against Paclitaxel-Induced Peripheral Neuropathy” (Journal of Medicinal Chemistry, 2022):
Structures can show the parent of a compound that is named as a salt. Where two headings read alike, the source gives them in different places.

Tests used:
[1] = system: mouse primary DRG neurons; test: Neurite outgrowth assay of DRG neurons (image-based HCS) against paclitaxel-induced neurotoxicity; assay type: cell-based; details: for activation at 1 µM: Mus musculus, DRG neuron; for protective efficacy against paclitaxel-induced neurotoxicity (in words): pretreated, + 50 nM paclitaxel
Protocol: All these 19 compounds were then subjected to the neurite outgrowth assay of dorsal root ganglion (DRG) neurons paired with an image-based HCS to analyze whether they had neuroprotective potential. Quantification of neurite outgrowth under different regimens is shown in Figure 3, wherein DRG neurons incubated in 50 nM paclitaxel could cause 60% reduction in neurite outgrowth compared to the control (no drug treatment). […] Taken together, CN016 is selected as a promising lead for further development.
Primary cortical or DRG cells were fixed with 4% paraformaldehyde for 15 min following compound and paclitaxel treatment. After washing with PBS, the fixed cells were permeabilized with PBS containing 0.05% Triton X-100 for 20 min and then blocked with commercial blocking buffer (#GTX30963; GeneTex, USA) at room temperature for 1 h. Subsequently, the cortical cells were stained for the extending processes and synaptic puncta by using anti-MAP2 (#MBS502140, 1:500; Mybiosource, USA) and anti-synaptophysin (#ab32127, 1:500; Abcam, UK) overnight. DRG cells were stained for the neurite and neuron nucleus by using anti-β III tubulin (#D71G9, 1:600; Cell Signaling, USA) and anti-NeuN monoclonal antibody (#MAB377, 1:400; Millipore, USA) overnight. On the second day, the samples were washed for 30 min with wash buffer and incubated with secondary antibodies (Alexa-488, 647 1:600; Thermo Fisher, USA) and 4 μg/mL Hoechst 33258 (#94403-1ML, 1:100; Merck, USA) at room temperature for 1 h. In the initial experiments of screening the potential neuroprotective compound for CIPN, ImageXpress^Micro (IXM) high-content imaging system (Molecular Devices, USA) driven by MetaXpress software was used. Images of treated cells were automatically acquired by using a 10× objective. Twenty-one images per well were taken in each of three channels (DAPI, FITC, and Cy5) to create a whole view of the entire neural network. The integrity of the neural network was evaluated using TIF images by importing them into MetaXpress software for analysis using the module for multiparameter, such as Neurite Outgrowth, Cell Scoring, and Transfluor. Furthermore, the score of synaptogenesis was analyzed in AcuityXpress software (Molecular Devices, USA).

sciatic nerve fibers = test: Ultrastructure evaluation of the sciatic nerve (TEM); assay type: in vivo, mouse; details: paclitaxel 4.5 mg/kg x 4
Source text: Sciatic nerves were isolated from mice after drug treatment and behavioral tests to examine the ultrastructure of nerve fibers. […] To evaluate the integrity of myelin, we calculated the G-ratio (axon perimeter/myelin perimeter) in different treatment groups. Because the symptoms of PIPN mostly manifest with sensory impairment,[28] we roughly classified nerve fibers into larger fibers (diameter > 5 μm) and small fibers (diameter < 5 μm) depending on the type of sensory information conveyed.[29] Large fibers with greater than 5 μm diameter carry information related to proprioception, touch, and pressure. In contrast, small fibers with less than 5 μm diameter carry information related to temperature and pain.
Sciatic nerve samples from mice from each treatment group were isolated after the last time point of mouse behavioral tests. Fixation of sciatic nerves with 4% glutaraldehyde and post fixation with 1% osmium tetroxide solution at 4 °C were performed. […] Transmission electron microscopy (H7650, Hitachi) was used to observe the ultrastructure in the cross section of the sciatic nerves.

primary cortical neurons [2] = test: Synaptogenesis assay of primary cortical neurons (image-based HCS) against paclitaxel-induced neurotoxicity; assay type: cell-based, mouse; details: Mus musculus, Primary cortical neuron; test compound 1000 nM + paclitaxel 1 μM; mean ± SE; read-out: B: Synaptogenesis (% of control) of test compound (1000 nM) + paclitaxel (1 μM)
In short: (§1)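 Cortical neurons from P0 C57BL/6J mouse pups pretreated with compound at 10 and 1000 nM before 1 μM paclitaxel. Cells fixed and immunostained for MAP2 (processes), synaptophysin (synaptic puncta) and Hoechst, then imaged by automated high-content microscopy at 10×. Neurite outgrowth and synaptogenesis scored from multiparameter image analysis.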

primary cortical neurons [3] = test: Neurite outgrowth assay of primary cortical neurons (image-based HCS) against paclitaxel-induced neurotoxicity; assay type: cell-based, mouse; details: Mus musculus, Primary cortical neuron; test compound 1000 nM + paclitaxel 1 μM; mean ± SE; read-out: D: Neurite outgrowth (% of control) of test compound (1000 nM) + paclitaxel (1 μM)
In short: as §1

[4] = system: paclitaxel-induced neuropathy in mice; set-up: method as in PMID 28349969; details: up to 25 mg/kg; cited from earlier work
mice = system: mice; set-up: method as in PMID 28349969; details: cited from earlier work
[5] = Table 1, A: neurite outgrowth (% of control) of test compound 1000 nM + paclitaxel 50 nM, B: paclitaxel 50 nM alone, DRG neurons, read-out: Neuroprotection rate = (A-B)±S.E.M [%]
[6] = supplementary CSV, test compound 1000 nM, read-out: A-B (A: neurite outgrowth (% of control) of test compound (1000 nM) + paclitaxel (50 nM), B: of paclitaxel (50 nM))
[7] = Table S2, test compound 1000 nM + paclitaxel 50 nM minus paclitaxel 50 nM, read-out: Neuroprotection rate = (A-B) ± S.E.M [%]

| SMILES | activation at 1 µM [1, 5] [%] | activation at 1 µM [1, 6] [%] | activation at 1 µM [1, 7] [%] | further results |
| --- | --- | --- | --- | --- |
| CC(=O)O[C@H]1C(=O)[C@@]2(C)[C@H]([C@H](OC(=O)c3ccccc3)[C@]3(O)C[C@H](OC(=O)[C@H](O)[C@@H](NC(=O)c4ccccc4)c4ccccc4)C(C)=C1C3(C)C)[C@]1(OC(C)=O)CO[C@@H]1C[C@@H]2O [paclitaxel, Paclitaxel] | – | – | – | reduction in neurite outgrowth compared to the control ([1]; 50 nM paclitaxel, DRG neurons): 60%; fiber loss (myelinated fiber density) (sciatic nerve fibers): 25% |
| Nc1cc(N2CCCCC2)nc(N)[n+]1[O-] [Minoxidil, reference compound] | 15 ± 1.41 | – | – | activity at 1 µM (primary cortical neurons [2]): 58 ± 8%; activity at 1 µM (primary cortical neurons [3]): 66 ± 3%; protective effect on paclitaxel-induced neuropathy in behavior tests [4]: no protective effect; dose causing hypotension (mice): 50 mg/kg; dose causing tachycardia (mice): 25 mg/kg |
| CC(O)CCn1cc(CNc2nc(NC3CCN(CCP(=O)(O)O)CC3)cc(N3CCOCC3)n2)nn1 (stereo not drawn) [CN026, {2-[4-(2-{[1-(3-Hydroxy-butyl)-1H-[1,2,3]triazol-4-ylmethyl]-amino}-6-morpholin-4-yl-pyrimidin-4-ylamino)-piperidin-1-yl]-ethyl}-phosphonic Acid Hydrobromide Salt] | 11 ± 1.48 | 11 | – | – |
| COCCCn1cc(CNc2nc(NC3CCN(CCP(=O)(O)O)CC3)cc(N3CCOCC3)n2)nn1 [CN028, {2-[4-(2-{[1-(3-Methoxy-propyl)-1H-[1,2,3]triazol-4-ylmethyl]-amino}-6-morpholin-4-yl-pyrimidin-4-ylamino)-piperidin-1-yl]-ethyl}-phosphonic Acid Hydrobromide Salt] | -2 | -2 | – | – |
| O=C(O)Cn1cc(CNc2nc(NC3CCN(Cc4ccccc4)CC3)cc(N3CCOCC3)n2)nn1 [CN001, (4-{[4-(1-Benzyl-piperidin-4-ylamino)-6-morpholin-4-yl-pyrimidin-2-ylamino]-methyl}-[1,2,3]triazol-1-yl)-acetic Acid Hydrochloride Salt] | – | -6 | -6 ± 0.3 | – |
| CSCCCn1cc(CNc2nc(NC3CCN(Cc4ccccc4)CC3)cc(N3CCOCC3)n2)nn1 [CN003, N4-(1-Benzyl-piperidin-4-yl)-N2-[1-(3-methylsulfanyl-propyl)-1H-[1,2,3]triazol-4-ylmethyl]-6-morpholin-4-yl-pyrimidine-2,4-diamine] | – | 1 | 1 ± 2.6 | – |
| COC(=O)CCN1CCC(Nc2cc(N3CCOCC3)nc(NCCCCCCO)n2)CC1 [CN017, Methyl 3-(4-((2-((6-Hydroxyhexyl)amino)-6-morpholinopyrimidin-4-yl)amino)piperidin-1-yl)propanoate] | – | 1 | 1 ± 0.51 | protective efficacy against paclitaxel-induced neurotoxicity (in words) ([1]; DRG neurons): inactive |
| O=P(O)(O)CCN1CCC(Nc2cc(N3CCS(=O)(=O)CC3)nc(NCc3cn(CCCO)nn3)n2)CC1 [CN024, {2-[4-(6-(1,1-Dioxo-1l6-thiomorpholin-4-yl)-2-{[1-(3-hydroxy-propyl)-1H-[1,2,3]triazol-4-ylmethyl]-amino}-pyrimidin-4-ylamino)-piperidin-1-yl]-ethyl}-phosphonic Acid Hydrobromide Salt] | 7 ± 0.84 | 7 | – | – |
| O=P(O)(O)CCN1CCC(Nc2cc(N3CCSCC3)nc(NCc3cn(CCCO)nn3)n2)CC1 [CN023, {2-[4-(2-{[1-(3-Hydroxy-propyl)-1H-[1,2,3]triazol-4-ylmethyl]-amino}-6-thiomorpholin-4-yl-pyrimidin-4-ylamino)-piperidin-1-yl]-ethyl}-phosphonic Acid Hydrobromide Salt] | 4 ± 1.43 | 4 | – | – |
| O=P(O)(O)CCN1CCC(Nc2cc(N3CCOCC3)nc(NCc3cn(CCO)nn3)n2)CC1 [CN020, (2-(4-((2-(((1-(2-Hydroxyethyl)-1H-1,2,3-triazol-4-yl)methyl)amino)-6-morpholinopyrimidin-4-yl)amino)piperidin-1-yl)ethyl)phosphonic Acid Hydrobromide Salt] | 8 to 11 | 8 | – | – |
| CCOP(=O)(CCN1CCC(Nc2cc(N3CCOCC3)nc(NCc3cn(CCCO)nn3)n2)CC1)OCC [CN012, {2-[4-(2-{[1-(3-Hydroxy-propyl)-1H-[1,2,3]triazol-4-ylmethyl]-amino}-6-morpholin-4-yl-pyrimidin-4-ylamino)-piperidin-1-yl]-ethyl}-phosphonic Acid Diethyl Ester] | 12 ± 1 | 9 | 9 ± 1 | protective efficacy against paclitaxel-induced neurotoxicity (in words) ([1]; DRG neurons): exhibited protective efficacy |
| CCOP(=O)(CCN1CCC(Nc2cc(N3CCOCC3)nc(NCc3cn(CCC(C)(C)O)nn3)n2)CC1)OCC [CN013, {2-[4-(2-{[1-(3-Hydroxy-3-methyl-butyl)-1H-[1,2,3]triazol-4-ylmethyl]-amino}-6-morpholin-4-yl-pyrimidin-4-ylamino)-piperidin-1-yl]-ethyl}-phosphonic Acid Diethyl Ester] | – | 6 | 6 ± 1.17 | – |
| NCCOCCn1cc(CNc2nc(NC3CCN(C(=O)CCNC(=O)C4(O)CC(O)C(O)C(O)C4)CC3)cc(N3CCOCC3)n2)nn1 (stereo not drawn) [CN008, 1,3,4,5-Tetrahydroxy-cyclohexanecarboxylic Acid (3-{4-[2-({1-[2-(2-Amino-ethoxy)-ethyl]-1H-[1,2,3]triazol-4-ylmethyl}-amino)-6-morpholin-4-yl-pyrimidin-4-ylamino]-piperidin-1-yl}-3-oxo-propyl)-amide Hydrochloride Salt] | – | 4 | 4 ± 1.44 | – |
